From ChEMBL document CHEMBL1141311, “Bioactive secondary metabolites from Boesenbergia pandurata of Myanmar and their preferential cytotoxicity against human pancreatic cancer PANC-1 cell line in nutrient-deprived medium” (2007) come the findings set out here.

In this assay the test system is PANC-1. As to the kind of experiment: Cytotoxicity against human PANC1 cells assessed as cell viability. It is filed as functional.
With `COc1cc(O)c2c(c1C/C=C(\C)CCC=C(C)C)O[C@@H](c1ccccc1)CC2=O`, the PC100 worked out at 128 µM.
As to `CC(C)=CCC/C(C)=C/Cc1c(O)cc2c(c1O)C(=O)C[C@@H](c1ccccc1)O2`, the PC100 was 8 µM.
For the compound `COc1cc(O)cc2c1C(=O)C[C@@H](c1ccc(O)cc1)O2`, the PC100 was >256 µM.
The value for `COc1cc(O)cc(O)c1C(=O)[C@@H]1[C@H](CC=C(C)C)C(C)=CC[C@H]1c1ccc(O)cc1` (racemic) was >256 µM; that for `COc1cc2c(c(O)c1C/C=C(\C)CCC=C(C)C)C(=O)C[C@@H](c1ccccc1)O2` was 128 µM; that for `COc1cc(O)c(C(=O)/C=C/c2ccc(O)cc2)c(OC)c1` [FLAVOKAWAIN C] was >256 µM.
The value for `CC(C)=CC[C@@H]1C(C)=CC[C@@H](C(=O)c2c(O)cc(O)cc2O)[C@@H]1c1ccccc1` was 16 µM; that for `COc1cc2c(c(O)c1C(=O)/C=C/c1ccccc1)C=CC(C)(CCC=C(C)C)O2` (stereo unspecified) [BOESENBERGIN B] was 64 µM.
Then `COc1cc(O)c(C(=O)[C@@H]2[C@H](CC=C(C)C)C(C)=CC[C@H]2c2ccccc2)c(OC)c1` (racemic), with 64 µM; and `COc1cc(O)c(C(=O)[C@@H]2[C@H](CC=C(C)C)C(C)=CC[C@H]2c2ccccc2)c(O)c1` [PANDURATIN A], with 2.5 µM; and `COc1cc(O)cc(O)c1C(=O)[C@@H]1[C@H](CC=C(C)C)C(C)=CC[C@H]1c1ccccc1`, with 16 µM.
With `COc1cc(O)c2c(c1)O[C@H](c1ccccc1)CC2=O` [PINOSTROBIN], the PC100 was >256 µM.
Then `COc1cc(O)c2c(=O)cc(-c3ccccc3)oc2c1` [TECHTOCHRYSIN], with >256 µM.
The value for `COc1cc(O)c(C(=O)/C=C/c2ccccc2)c2c1C=CC(C)(CCC=C(C)C)O2` (stereo unspecified) [BOESENBERGIN A] was 64 µM; that for `COc1cc(C[C@H]2C(=O)OC[C@@H]2Cc2ccc(OC)c(OC)c2)ccc1O` [ARCTIGENIN] was 1 µM.
Regarding `CC(=O)O[C@H]1C(=O)[C@@]2(C)[C@H]([C@H](OC(=O)c3ccccc3)[C@]3(O)C[C@H](OC(=O)[C@H](O)[C@@H](NC(=O)c4ccccc4)c4ccccc4)C(C)=C1C3(C)C)[C@]1(OC(C)=O)CO[C@@H]1C[C@@H]2O` [PACLITAXEL], the PC100 is >256 µM.
In the case of `COc1cc(O)c(C/C=C(\C)CCC=C(C)C)c(O)c1C(=O)/C=C/c1ccccc1`, the PC100 amounted to 16 µM.
For `O=C1C[C@@H](c2ccccc2)Oc2cc(O)cc(O)c21` [PINOCEMBRIN], the PC100 turned out to be 64 µM.
The value for `COc1cc(O)c(C(=O)[C@@H]2CC=C(C)[C@@H](CC=C(C)C)[C@H]2c2ccccc2)c(O)c1` [(-)-NICOLAIOIDESIN B] was 2.5 µM; that for `COc1cc(O)cc(O)c1C(=O)/C=C/c1ccccc1` [CARDAMOMIN] was >256 µM; that for `COc1cc(O)cc2c1C(=O)C[C@@H](c1ccccc1)O2` was >256 µM.
Then `CC(C)=CCCC1(C)C=Cc2c(cc3c(c2O)C(=O)C[C@@H](c2ccccc2)O3)O1` (stereo partly specified), with 64 µM; and `CC(C)=CC[C@@H]1C(C)=CC[C@@H](c2ccccc2)[C@@H]1C(=O)c1c(O)cc(O)cc1O` [4-HYDROXYPANDURATIN A], with 16 µM.
The value for `COc1cc(O)cc(O)c1C(=O)[C@@H]1CC=C(C)[C@@H](CC=C(C)C)[C@H]1c1ccccc1` (racemic) was 8 µM; that for `COc1cc(/C=C/c2ccccc2)oc(=O)c1` [DESMETHOXYYANGONIN] was >256 µM; that for `CC(C)=CCC/C(C)=C/COC(=O)c1c(O)cc(O)cc1CCc1ccccc1` was 16 µM.
